Blank lines part the entries; values can stand above or below the molecule they belong to.
What was measured:
arteria saphena = assay: Vasorelaxant action in vitro (phenylephrine-contracted arteria saphena rings); type: cell-based, Rabbits; details: Oryctolagus cuniculus; rabbit arteria saphena rings, contraction induced by phenylephrine; concentration reducing contraction to 50%
Method: Rabbits are anesthetized by intravenous injection of thiopental sodium […] (about 50 mg/kg) and exsanguinated. The arteria saphena is removed and divided into 3 mm wide rings. The rings are individually mounted on in each case one triangular pair of hooks, open at the end, made of 0.3 mm strong special wire (Remanium®). Under a pretension, each ring is transferred into 5 ml organ baths containing a warm, carbogen-aerated Krebs-Henseleit solution at 37° C. having the following composition (mM): NaCl: 119; KCl: 4.8; CaCl2×2 H2O: 1; MgSO4×7 H2O: 1.4; KH2PO4: 1.2; NaHCO3: 25; glucose: 10; bovine serum albumin: 0.001%. The contractility is detected using Statham UC2 cells, amplified and digitalized by means of A/D converters (DAS-1802 HC, Keithley Instruments Munich), and recorded in parallel on linear recorders. Contractions are induced by addition of phenylephrine.
After several (in general 4) control cycles, the substance to be investigated is added in each further passage in increasing dosage, and the height of the contraction achieved under the influence of the test substance is compared with the height of the contraction achieved in the last preliminary passage. From this, the concentration which is necessary in order to reduce the contraction achieved in the preliminary control to 50% (IC50) is calculated. The standard administration volume is 5 μl. The proportion of DMSO in the bath solution corresponds to 0.1%.

Heme-containing sGC = target: T1, Heme-containing sGC (Rattus norvegicus, UniProt P20595); assay: Stimulation of recombinant soluble guanylate cyclase (sGC) in vitro, heme-containing enzyme; type: biochemical; details: for Stimulation (n-fold) Heme-containing sGC Basal: n-fold stimulation of basal activity
T1 construct: made in house; host or cells: Sf9 insect cells (baculovirus)
T1 sequence (P19686 whole entry partner): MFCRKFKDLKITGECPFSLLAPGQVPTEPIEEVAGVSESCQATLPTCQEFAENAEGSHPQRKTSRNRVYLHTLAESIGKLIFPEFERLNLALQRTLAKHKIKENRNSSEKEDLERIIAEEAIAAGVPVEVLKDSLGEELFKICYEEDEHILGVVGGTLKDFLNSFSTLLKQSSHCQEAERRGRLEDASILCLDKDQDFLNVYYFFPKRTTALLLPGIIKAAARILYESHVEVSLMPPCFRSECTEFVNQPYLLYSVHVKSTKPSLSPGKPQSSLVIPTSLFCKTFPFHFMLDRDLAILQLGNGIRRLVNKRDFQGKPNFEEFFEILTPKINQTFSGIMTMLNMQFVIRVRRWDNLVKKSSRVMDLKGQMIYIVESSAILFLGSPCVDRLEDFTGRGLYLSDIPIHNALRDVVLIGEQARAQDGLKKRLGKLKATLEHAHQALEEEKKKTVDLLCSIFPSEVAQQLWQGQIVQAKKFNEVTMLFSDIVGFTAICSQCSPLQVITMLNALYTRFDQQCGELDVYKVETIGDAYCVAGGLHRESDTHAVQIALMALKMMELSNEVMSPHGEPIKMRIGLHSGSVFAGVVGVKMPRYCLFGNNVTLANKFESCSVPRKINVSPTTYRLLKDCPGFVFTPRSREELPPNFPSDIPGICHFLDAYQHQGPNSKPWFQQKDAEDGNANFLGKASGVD
T1 sequence (P20595 whole entry): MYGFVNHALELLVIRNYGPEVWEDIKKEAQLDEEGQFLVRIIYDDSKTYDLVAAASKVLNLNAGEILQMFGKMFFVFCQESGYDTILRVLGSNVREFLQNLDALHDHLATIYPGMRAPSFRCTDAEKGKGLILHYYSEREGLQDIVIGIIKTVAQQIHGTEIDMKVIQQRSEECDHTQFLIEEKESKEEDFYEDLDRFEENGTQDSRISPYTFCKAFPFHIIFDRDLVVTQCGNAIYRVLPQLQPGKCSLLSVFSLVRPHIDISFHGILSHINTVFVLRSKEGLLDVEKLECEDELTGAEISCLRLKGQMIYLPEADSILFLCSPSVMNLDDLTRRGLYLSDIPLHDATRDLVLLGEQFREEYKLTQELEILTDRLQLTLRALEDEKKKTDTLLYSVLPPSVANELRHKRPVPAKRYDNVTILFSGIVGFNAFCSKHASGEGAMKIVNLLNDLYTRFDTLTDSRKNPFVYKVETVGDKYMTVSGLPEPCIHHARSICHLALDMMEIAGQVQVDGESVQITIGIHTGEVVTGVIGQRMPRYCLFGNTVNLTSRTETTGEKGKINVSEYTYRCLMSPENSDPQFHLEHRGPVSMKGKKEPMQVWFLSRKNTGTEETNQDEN
Method: (§1) The investigations on the stimulation of recombinant soluble guanylate cyclase (sGC) and the compounds according to the invention with and without sodium nitroprusside and with and without the heme-dependent sGC inhibitor 1H-1,2,4-oxadiazole-(4,3a)-quinoxalin-1-one (ODQ) were carried out by the method described in detail in the following literature reference: M. Hoenicka, E. M. Becker, H. Apeler, T. Sirichoke, H. Schroeder, R. Gerzer and J.-P. Stasch: Purified soluble guanylyl cyclase expressed in a baculovirus/Sf9 system: stimulation by YC-1, nitric oxide, and carbon oxide. J. Mol. Med. 77 (1999): 14-23.
(§2) Activation of sGC by a test substance is stated as n-fold stimulation of basal activity.

Heme-free sGC = target: T2, Heme-free sGC (Rattus norvegicus, UniProt P20595); assay: Stimulation of recombinant soluble guanylate cyclase (sGC) in vitro, heme-free enzyme; type: biochemical; details: heme-free (Tween 20 0.5%)
T2 construct: made in house; host or cells: Sf9 insect cells (baculovirus)
T2 sequence (P19686 whole entry partner): as the sequence (P19686 whole entry partner) above
T2 sequence (P20595 whole entry): as the sequence (P20595 whole entry) above
Method: as §1
Heme-free guanylate cyclase was obtained by adding Tween 20 to the sample buffer (final concentration 0.5%).
as §2

Compound: O=C(O)CCCCC(/C=C/c1ccccc1OCc1ccc(-c2ccccc2)cc1)Cc1ccc(C(=O)O)cc1 (stereo not shown) [Example 26]
IC50 (arteria saphena): 1.9 nM

Compound: Cc1cc(COc2ccccc2/C=C/C(CCCCC(=O)O)Cc2ccc(C(=O)O)cc2)nn1-c1cc(Cl)cc(Cl)c1 (stereo not shown) [Example 76]
IC50 (arteria saphena): 5.2 nM

Compound: O=C(O)CCCCC(/C=C/c1ccccc1OCc1ccc(-c2csc(C(F)(F)F)n2)cc1)Cc1ccc(C(=O)O)cc1 (stereo not shown) [Example 81]
IC50 (arteria saphena): 3.9 nM

Compound: O=C(O)CCCCC(/C=C/c1ccccc1OCc1ccc(C2CCCCC2)cc1)Cc1ccc(C(=O)O)cc1 (stereo not shown) [Example 72]
IC50 (arteria saphena): 0.2 nM

Compound: O=C(O)CCCCC(/C=C/c1ccccc1NCc1ccccc1)Cc1ccc(C(=O)O)cc1 (stereo not shown) [Example 30]
IC50 (arteria saphena): 3500 nM

Compound: O=C(O)CCCCC(/C=C/c1cccnc1OCCCCCc1ccccc1)Cc1ccc(C(=O)O)cc1 (stereo not shown) [Example 34]
IC50 (arteria saphena): 170 nM

Compound: CCCCCCCCOc1ccccc1/C=C/C(CCCCC(=O)O)Cc1ccc(C(=O)O)cc1 (stereo not shown) [Example 29]
IC50 (arteria saphena): 2.5 nM

Compound: O=C(O)CCCCC(/C=C/c1ccccc1OCc1cc2ccccc2s1)Cc1ccc(C(=O)O)cc1 (stereo not shown) [Example 78]
IC50 (arteria saphena): 5.8 nM

The next lines start with the values.

IC50 (arteria saphena): 190 nM
Compound: O=C(O)CCCCC(/C=C/c1ccccc1OCCCCCN1CCCC1)Cc1ccc(C(=O)O)cc1 (stereo not shown) [Example 116]

IC50 (arteria saphena): 0.2 nM
Stimulation (n-fold) Heme-containing sGC +ODQ (10 μM) (Heme-containing sGC; 0.1 μM test compound): 84 n-fold
Stimulation (n-fold) Heme-containing sGC +SNP (0.1 μM) (Heme-containing sGC; 0.1 μM test compound): 45 n-fold
Stimulation (n-fold) Heme-containing sGC Basal (Heme-containing sGC; 0.1 μM test compound): 17 n-fold
Stimulation (n-fold) Heme-containing sGC +ODQ (10 μM) (Heme-containing sGC; 1.0 μM test compound): 151 n-fold
Stimulation (n-fold) Heme-containing sGC +SNP (0.1 μM) (Heme-containing sGC; 1.0 μM test compound): 44 n-fold
Stimulation (n-fold) Heme-containing sGC Basal (Heme-containing sGC; 1.0 μM test compound): 23 n-fold
Stimulation (n-fold) Heme-containing sGC +SNP (0.1 μM) (Heme-containing sGC; 10 μM test compound): 54 n-fold
Stimulation (n-fold) Heme-containing sGC Basal (Heme-containing sGC; 10 μM test compound): 33 n-fold
Stimulation (n-fold) Heme-containing sGC +ODQ (10 μM) (Heme-containing sGC): 178 n-fold
Stimulation (n-fold) Heme-free sGC +ODQ (10 μM) (Heme-free sGC; 0.1 μM test compound): 392 n-fold
Stimulation (n-fold) Heme-free sGC Basal (Heme-free sGC; 0.1 μM test compound): 436 n-fold
Stimulation (n-fold) Heme-free sGC +ODQ (10 μM) (Heme-free sGC; 1.0 μM test compound): 435 n-fold
Stimulation (n-fold) Heme-free sGC Basal (Heme-free sGC; 1.0 μM test compound): 476 n-fold
Stimulation (n-fold) Heme-free sGC +ODQ (10 μM) (Heme-free sGC; 10 μM test compound): 500 n-fold
Stimulation (n-fold) Heme-free sGC Basal (Heme-free sGC; 10 μM test compound): 541 n-fold
Compound: O=C(O)CCCC[C@@H](CCc1ccccc1OCc1ccc(C2CCCCC2)cc1)Cc1ccc(C(=O)O)cc1 [Example 93]

IC50 (arteria saphena): 580 nM
Compound: O=C(O)CSCCC(/C=C/c1ccccc1OCCCCCc1ccccc1)Cc1ccc(C(=O)O)cc1 (stereo not shown) [Example 164]

IC50 (arteria saphena): 30 nM
Compound: O=C(O)CCCCC(CNc1ccccc1OCCCCCc1ccccc1)Cc1ccc(C(=O)O)cc1 (stereo not shown) [Example 150]

IC50 (arteria saphena): 220 nM
Compound: O=C(O)CCCCC(COCc1cccc(Oc2ccccc2F)c1)Cc1ccc(C(=O)O)cc1 (stereo not shown) [Example 132]
